Reference: patent publication US20220024877A1 (Kansas State University Research Foundation, priority 2018, published 2022)
In brackets after ≈: the same amount, converted by molar mass. Read-outs that look alike come from different tables or passages of the source.

Key:
[1] = Copper(I) binding constant of NNSN compounds (1H-NMR titration with CuBr in D4-methanol); conditions: for Copper (I) binding constant: Table I
Experimental: They were recorded in D4-methanol by means of adding aliquots of a 5 mmol CuBr stock solution in D4-methanol to the 1 mmol NNSN-compound, resulting in 0, 0.5, 1.0, 2.0 and 3.0 mmol CuBr concentration in D4-methanol.

[2] = log P (octanol/water partition coefficient); assay type: physicochemical
[3] = Therapeutic index (approx.)
[4] = tested on: Avirulent Mtb strain mc26206 (H37Rv ΔpanCD ΔleuCD, double auxotroph); assay: microbe, parasite or virus in culture; assay type: cell-based; conditions: Mycobacterium tuberculosis
[5] = tested on: S. aureus clinical isolate SA3; assay: Zinc-activated activity, MIC with Zn2+ as trigger; conditions: Staphylococcus aureus
S. aureus strain 1471 = assay: Drop assay against S. aureus strain 1471 with or without copper
Experimental: For the drop assay, bacteria were grown in wells with or without copper, using a 1:2 drug titration starting at 10 μM.

MRSA = assay: In vitro activity against S. aureus (MRSA), MIC with or without Cu supplementation; conditions: Staphylococcus aureus, MRSA
Experimental: S. aureus was inoculated in Mueller-Hinton medium from frozen stocks and grown for 2-4 h (until reaching an OD600˜1) at 37° C. while shaking. Once the OD was reached, bacteria were harvested and diluted in Phenolred-free RPMI1640 medium to an OD of 0.01 (=inoculum). Test compounds where diluted from frozen DMSO-stocks were diluted in Phenolred-free RPMI1640 medium with or without Cu supplementation (100 μM) and serially diluted in 96-well plates in the same medium to achieve a final concentration of between 0.08 and 10 μM after addition of an equal volume of inoculum. Medium-only controls and growth controls in the absence of test compounds were also included. The plates were placed in sealed bags and incubated at 37° C. After 15-20 h incubation time, an OD600 reading was taken and analyzed. […] If kinetic data were required, resazurin was added to each well. Using a plate reader with incubation chamber, resazurin conversion was monitored by fluorescence reading every 20 min for up to 24 h. After normalizing the data to respective controls, the MIC was determined using the same definition as above.

[6] = read-out: MIC* against MRSA (μM), kinetic data (determined from bacteria growth experiments), resulting in IC50 values similar to MIC values

| Compound | Copper (I) binding constant [1] [M⁻¹] | logP [2] | Therapeutic index (approx.) [3] | IC50 ([4]; read-out: IC50 +Cu) [nM] | IC50 ([4]; read-out: IC50 −Cu) [nM] | MIC90 ([4]; read-out: MIC90 +Cu) [µM] | MIC90 ([4]; read-out: MIC90 −Cu) [µM] | MIC [5] [µM] | MIC (S. aureus strain 1471; Staphylococcus aureus, 1471, read-out: MIC: +50 μM Cu) [µM] | MIC (S. aureus strain 1471; Staphylococcus aureus, MRSA, read-out: MIC against MRSA (clinical isolate 1471)) [µM] | MIC (MRSA; read-out: MIC against the clinical isolate SA3, SA3 resistant to ampicillin, clindamycin, erythromycin, penicillin, and tetracycline) [µM] | MIC (MRSA; [6]) [µM] | Binding constant ([1]; Cu-NNSN 1:1 stoichiometry) [M⁻¹] |
| --- | --- | --- | --- | --- | --- | --- | --- | --- | --- | --- | --- | --- | --- |
| Nc1ccn(C(=S)Nc2ccc(Cl)cc2)n1 [APM03, 3-amino-N-(4-chlorophenyl)-1H-pyrazole-1-carbothioamide] | 53225 | 2.1 | 2 | 300 | > 12500 | 0.5 (≈ 0.126 µg/mL) | > 25 | 2.5 (≈ 0.632 µg/mL) | 1.25 (≈ 0.316 µg/mL) | 0.6 (≈ 0.152 µg/mL) | 70 (≈ 17.7 µg/mL) | 0.07 (≈ 0.0177 µg/mL) |  |
| Cc1ccn(C(=S)Nc2ccc(Cl)cc2)n1 [SB17] |  |  |  |  |  |  |  | 5 (≈ 1.26 µg/mL) |  |  |  |  | 54020 |
| Nc1ccn(C(=S)Nc2ccc([N+](=O)[O-])cc2)n1 [SB27, 3-amino-N-(4-nitrophenyl)-1H-pyrazole-1-carbothioamide] | 10460 |  | 1 |  |  |  |  |  |  |  |  | 0.3 (≈ 0.079 µg/mL) |  |
